Laboratory results as given in paper PMC7071059, “Targeting Receptor Tyrosine Kinase VEGFR-2 in Hepatocellular Cancer: Rational Design, Synthesis and Biological Evaluation of 1,2-Disubstituted Benzimidazoles” (Molecules, 2020).

Columns and labels:
HepG2 cell line = assay: In vitro cytotoxic activity, Sulfo-Rhodamine-B (SRB) assay; type: cell-based, human; conditions: Homo sapiens, HepG2, 48 h, SRB assay, 48 h; mean of three independent experiments; read-out: IC50 (μM) on HepG2 Cell Line
NCI/ADR-RES = assay: NCI 60 one dose (10 μM) anticancer assay; type: cell-based; conditions: Homo sapiens, 10 µM one dose, Ovarian Cancer, read-out: Growth Inhibition % NCI/ADR-RES
Protocol: (§1) Some of the synthesized compounds were selected by the NCI, Bethesda, MD, USA for evaluation of their anticancer activity. An in vitro one dose (10 μM) anticancer assay was conducted on a full NCI 60-cell line panel derived from 9 different cancer types. Table 2 presents the percent of growth inhibition of some cell lines. […] K-562 and MOLT-4 from leukemia, NCI-H522 from non-small cell lung cancer, HCT-116 from colon cancer, SK-MEL-5 and UACC-62 from melanoma, UO-31 from renal cancer, PC-3 from prostate cancer and HS 578T and T-47D from breast cancer are the most sensitive cell lines to the tested compounds. No growth inhibition was observed from the selected compounds against COLO205, HCC-2998, MALME-3M, SK-MEL-28, DU-145 and BT-549 cell lines. […] Against UO-31 from renal cancer and PC-3 from prostate cancer, it inhibited the growth of 44% and 58% of the cancer cells, respectively.

OVCAR-5 = assay: NCI 60 one dose (10 μM) anticancer assay; type: cell-based; conditions: Homo sapiens, 10 µM one dose, Ovarian Cancer, read-out: Growth Inhibition % OVCAR-5
Protocol: as §1

K-562 = assay: NCI 60 one dose (10 μM) anticancer assay; type: cell-based; conditions: Homo sapiens, K562; 10 µM one dose; Leukemia; read-out: Growth Inhibition % K-562
Protocol: as §1

KM12 = assay: NCI 60 one dose (10 μM) anticancer assay; type: cell-based; conditions: Homo sapiens, 10 µM one dose, Colon Cancer, read-out: Growth Inhibition % KM12
Protocol: as §1

HT29 = assay: NCI 60 one dose (10 μM) anticancer assay; type: cell-based; conditions: Homo sapiens, HT-29; 10 µM one dose; Colon Cancer; read-out: Growth Inhibition % HT29
Protocol: as §1

MDA-MB-468 = assay: NCI 60 one dose (10 μM) anticancer assay; type: cell-based; conditions: Homo sapiens, 10 µM one dose, Breast Cancer, read-out: Growth Inhibition % MDA-MB-468
Protocol: as §1

PC-3 = assay: NCI 60 one dose (10 μM) anticancer assay; type: cell-based; conditions: Homo sapiens, 10 µM one dose, Prostate Cancer, read-out: Growth Inhibition % PC-3
Protocol: as §1

TK-10 = assay: NCI 60 one dose (10 μM) anticancer assay; type: cell-based; conditions: Homo sapiens, 10 µM one dose, Renal Cancer, read-out: Growth Inhibition % TK-10
Protocol: as §1

HCT-15 = assay: NCI 60 one dose (10 μM) anticancer assay; type: cell-based; conditions: Homo sapiens, 10 µM one dose, Colon Cancer, read-out: Growth Inhibition % HCT-15
Protocol: as §1

UACC-62 = assay: NCI 60 one dose (10 μM) anticancer assay; type: cell-based; conditions: Homo sapiens, 10 µM one dose, Melanoma, read-out: Growth Inhibition % UACC-62
Protocol: as §1

NCI-H522 = assay: NCI 60 one dose (10 μM) anticancer assay; type: cell-based; conditions: Homo sapiens, 10 µM one dose, Non-small cell lung Cancer, read-out: Growth Inhibition % NCI-H522
Protocol: as §1

HL-60(TB) = assay: NCI 60 one dose (10 μM) anticancer assay; type: cell-based; conditions: Homo sapiens, 10 µM one dose, Leukemia, read-out: Growth Inhibition % HL-60(TB)
Protocol: as §1

T-47D = assay: NCI 60 one dose (10 μM) anticancer assay; type: cell-based; conditions: Homo sapiens, T47D; 10 µM one dose; Breast Cancer; read-out: Growth Inhibition % T-47D
Protocol: as §1

NCI-H460 = assay: NCI 60 one dose (10 μM) anticancer assay; type: cell-based; conditions: Homo sapiens, 10 µM one dose, Non-small cell lung Cancer, read-out: Growth Inhibition % NCI-H460
Protocol: as §1

HCT-116 = assay: NCI 60 one dose (10 μM) anticancer assay; type: cell-based; conditions: Homo sapiens, 10 µM one dose, Colon Cancer, read-out: Growth Inhibition % HCT-116
Protocol: as §1

M14 = assay: NCI 60 one dose (10 μM) anticancer assay; type: cell-based; conditions: Homo sapiens, 10 µM one dose, Melanoma, read-out: Growth Inhibition % M14
Protocol: as §1

NCI-H226 = assay: NCI 60 one dose (10 μM) anticancer assay; type: cell-based; conditions: Homo sapiens, 10 µM one dose, Non-small cell lung Cancer, read-out: Growth Inhibition % NCI-H226
Protocol: as §1

MDA-MB-231/ATTC = assay: NCI 60 one dose (10 μM) anticancer assay; type: cell-based; conditions: Homo sapiens, 10 µM one dose, Breast Cancer, read-out: Growth Inhibition % MDA-MB-231/ATTC
Protocol: as §1

OVCAR-8 = assay: NCI 60 one dose (10 μM) anticancer assay; type: cell-based; conditions: Homo sapiens, 10 µM one dose, Ovarian Cancer, read-out: Growth Inhibition % OVCAR-8
Protocol: as §1

MCF7 = assay: NCI 60 one dose (10 μM) anticancer assay; type: cell-based; conditions: Homo sapiens, 10 µM one dose, Breast Cancer, read-out: Growth Inhibition % MCF7
Protocol: as §1

HOP-62 = assay: NCI 60 one dose (10 μM) anticancer assay; type: cell-based; conditions: Homo sapiens, 10 µM one dose, Non-small cell lung Cancer, read-out: Growth Inhibition % HOP-62
Protocol: as §1

CAK1-1 = assay: NCI 60 one dose (10 μM) anticancer assay; type: cell-based; conditions: 10 µM one dose; Renal Cancer; read-out: Growth Inhibition % CAK1-1
Protocol: as §1

786-0 = assay: NCI 60 one dose (10 μM) anticancer assay; type: cell-based; conditions: Homo sapiens, 10 µM one dose, Renal Cancer, read-out: Growth Inhibition % 786-0
Protocol: as §1

SNB-19 = assay: NCI 60 one dose (10 μM) anticancer assay; type: cell-based; conditions: Homo sapiens, 10 µM one dose, CNS Cancer, read-out: Growth Inhibition % SNB-19
Protocol: as §1

LOX IMVI = assay: NCI 60 one dose (10 μM) anticancer assay; type: cell-based; conditions: Homo sapiens, 10 µM one dose, Melanoma, read-out: Growth Inhibition % LOX IMVI
Protocol: as §1

MDA-MB-435 = assay: NCI 60 one dose (10 μM) anticancer assay; type: cell-based; conditions: Homo sapiens, 10 µM one dose, Melanoma, read-out: Growth Inhibition % MDA-MB-435
Protocol: as §1

RXF 393 = assay: NCI 60 one dose (10 μM) anticancer assay; type: cell-based; conditions: Homo sapiens, 10 µM one dose, Renal Cancer, read-out: Growth Inhibition % RXF 393
Protocol: as §1

MOLT-4 = assay: NCI 60 one dose (10 μM) anticancer assay; type: cell-based; conditions: Homo sapiens, 10 µM one dose, Leukemia, read-out: Growth Inhibition % MOLT-4
Protocol: as §1

Structure (SMILES) | melting point [°C] | IC50 (HepG2 cell line) [µM] | inhibition at 10 µM (NCI/ADR-RES) [%] | inhibition at 10 µM (OVCAR-5) [%] | inhibition at 10 µM (K-562) [%] | inhibition at 10 µM (KM12) [%] | inhibition at 10 µM (HT29) [%] | inhibition at 10 µM (MDA-MB-468) [%] | inhibition at 10 µM (PC-3) [%] | inhibition at 10 µM (TK-10) [%] | inhibition at 10 µM (HCT-15) [%] | inhibition at 10 µM (UACC-62) [%] | inhibition at 10 µM (NCI-H522) [%] | inhibition at 10 µM (HL-60(TB)) [%] | inhibition at 10 µM (T-47D) [%] | inhibition at 10 µM (NCI-H460) [%] | inhibition at 10 µM (HCT-116) [%] | inhibition at 10 µM (M14) [%] | inhibition at 10 µM (NCI-H226) [%] | inhibition at 10 µM (MDA-MB-231/ATTC) [%] | other results
C/C(=N\NC(=O)Cn1c(C(C)C)nc2ccccc21)c1ccccc1 [Compound 14a, (E)-2-(2-Isopropyl-1H-benzo[d]imidazol-1-yl)-N′-(1-phenylethylidene)acetohydrazide] | 176 to 178 | 25.9 | < 10 | 21 | < 10 | < 10 | < 10 | 29 | < 10 | < 10 | < 10 | 13 | < 10 | < 10 | < 10 | < 10 | < 10 | < 10 | 22 | < 10 | inhibition at 10 µM (OVCAR-8): < 10%; inhibition at 10 µM (MCF7): < 10%; inhibition at 10 µM (HOP-62): < 10%; inhibition at 10 µM (CAK1-1): 12%; inhibition at 10 µM (786-0): < 10%; inhibition at 10 µM (SNB-19): < 10%; inhibition at 10 µM (LOX IMVI): < 10%; inhibition at 10 µM (MDA-MB-435): < 10%; inhibition at 10 µM (RXF 393): 33%; inhibition at 10 µM (MOLT-4): < 10%
COc1cc(/C=N/NC(=O)Cn2c(-c3ccc(C)o3)nc3ccccc32)ccc1OCc1ccccc1 [Compound 17f, (E)-N′-(4-(Benzyloxy)-3-methoxybenzylidene)-2-(2-(5-methylfuran-2-yl)-1H-benzo[d]imidazol-1-yl)acetohydrazide] | 139 to 141 | 42.5 | < 10 | < 10 | 34 | 15 | < 10 | 23 | 37 | < 10 | 26 | 22 | 26 | < 10 | 31 | < 10 | 28 | < 10 | 16 | 21 | inhibition at 10 µM (OVCAR-8): 19%; inhibition at 10 µM (MCF7): 24%; inhibition at 10 µM (HOP-62): < 10%; inhibition at 10 µM (CAK1-1): 17%; inhibition at 10 µM (786-0): < 10%; inhibition at 10 µM (SNB-19): 20%; inhibition at 10 µM (LOX IMVI): < 10%; inhibition at 10 µM (MDA-MB-435): < 10%; inhibition at 10 µM (RXF 393): < 10%; inhibition at 10 µM (MOLT-4): 50%
CC(C)c1nc2ccccc2n1CC(=O)N/N=C/c1ccc(OCc2ccccc2)cc1 [Compound 17c, (E)-N′-(4-(Benzyloxy)benzylidene)-2-(2-isopropyl-1H-benzo[d]imidazol-1-yl)acetohydrazide] | 209 to 211 | 20.2 | < 10 | < 10 | 28 | < 10 | < 10 | < 10 | 17 | < 10 | < 10 | 26 | 26 | < 10 | 24 | < 10 | 18 | < 10 | < 10 | < 10 | inhibition at 10 µM (OVCAR-8): < 10%; inhibition at 10 µM (MCF7): < 10%; inhibition at 10 µM (HOP-62): < 10%; inhibition at 10 µM (CAK1-1): 15%; inhibition at 10 µM (786-0): < 10%; inhibition at 10 µM (SNB-19): < 10%; inhibition at 10 µM (LOX IMVI): < 10%; inhibition at 10 µM (MDA-MB-435): < 10%; inhibition at 10 µM (RXF 393): < 10%; inhibition at 10 µM (MOLT-4): 25%
